Laboratory results taken from patent EP0478445B1, “Composition for cleaning and decontaminating, in particular surgical instruments” (priority 1990, dated 1992).

Legend:
[1] = Irritancy of the ingredient
[2] = Characteristics of the ingredients (pH, solubility); assay type: physicochemical
homme = conditions: cited from earlier work

Question: With `CCCCCCCCCCCC[N+](C)(C)CC(=O)[O-]` [lauryldiméthylcarboxyméthylammonium bétaine] as the molecule, how does the “irritation des muqueuses et des yeux” value [1] read?
Answer: n'irrite ni les muqueuses ni les yeux

Question: With “N|N'(N"-2-hydroxyéthyl-N"-carboxyéthylaminoéthyl) amidoacétate|-N,N-diméthyl-N-coco-ammoniumbétaine” as the molecule, how does the solubilité [2] read?
Answer: soluble de façon limpide dans l'eau, l'éthanol, l'isopropanol

Question: And the “pH (à 10%)” value ([2]; at 10%)?
Answer: 8-9

Question: For `CCCCCCCCC=CCCCCCCCC1=NCCN1CCO` [1-hydroxyéthyl-2-heptadécényl-imidazoline], which solubilité [2] is on record?
Answer: soluble dans la plupart des solvants polaires et apolaires

Question: With `C=O` [formaldéhyde] as the molecule, how does the “larmoiements (inhalation)” value (homme; man, inhalation) read?
Answer: ≥ 0,1 ppm

Question: What about the oedème pulmonaire (homme; man, inhalation) of the same molecule?
Answer: 50 ppm

Question: And the irritation oculaire superficielle (homme; some exposed persons)?
Answer: ≥ 0,4 ppm
